Several values for one entry are separate records, joined by “and”; a condition that tells them apart may be missing. Equal values may be shown once. Inconclusive results and toxic doses are left out. No stated cut-off is given here; in the data, active means T/C of 150% or more; inactive means T/C below 125%.
Tested on: L1210 leukemia ip in BDF1 mice, survival T/C
Assay: NCI In Vivo Anticancer Drug Screen. Data for tumor model L1210 Leukemia (intraperitoneal) in B6D2F1 (BDF1) mice
Details: endpoint: mean survival time, higher = longer survival
Outline: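 Mice bearing the transplanted tumor received compound or vehicle. Survival of the treated group was divided by that of the vehicle-treated control group to give the ratio.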

[1] = dose: 100.0 mg/kg/injection, schedule: Q01DX001 (ip), vehicle: Klucel (hydroxypropylcellulose) (HPC)
[2] = dose: 100.0 mg/kg/injection, schedule: Q04DX003 (ip), vehicle: Klucel (hydroxypropylcellulose) (HPC)
[3] = dose: 200.0 mg/kg/injection, schedule: Q01DX001 (ip), vehicle: Klucel (hydroxypropylcellulose) (HPC)
[4] = dose: 400.0 mg/kg/injection, schedule: Q01DX001 (ip), vehicle: Klucel (hydroxypropylcellulose) (HPC)
[5] = dose: 100.0 mg/kg/injection, schedule: Q01DX009 (ip), vehicle: saline with Tween-80
[6] = dose: 200.0 mg/kg/injection, schedule: Q01DX009 (ip), vehicle: saline with Tween-80
[7] = dose: 100.0 mg/kg/injection, schedule: Q01DX001 (ip), vehicle: carboxymethylcellulose (CMC)
[8] = dose: 200.0 mg/kg/injection, schedule: Q01DX001 (ip), vehicle: carboxymethylcellulose (CMC)
[9] = dose: 400.0 mg/kg/injection, schedule: Q01DX001 (ip), vehicle: carboxymethylcellulose (CMC)
[10] = dose: 100.0 mg/kg/injection, schedule: Q04DX002 (ip), vehicle: Klucel (hydroxypropylcellulose) (HPC)
[11] = dose: 200.0 mg/kg/injection, schedule: Q04DX002 (ip), vehicle: Klucel (hydroxypropylcellulose) (HPC)
[12] = dose: 400.0 mg/kg/injection, schedule: Q04DX002 (ip), vehicle: Klucel (hydroxypropylcellulose) (HPC)
[13] = dose: 50.0 mg/kg/injection, schedule: Q01DX001 (ip), vehicle: carboxymethylcellulose (CMC)
[14] = dose: 100.0 mg/kg/injection, schedule: Q01DX009 (ip), vehicle: Klucel (hydroxypropylcellulose) (HPC)

Measured: T/C

CC(C)(C)C1CCC(NC2=NCCO2)CC1 (centres undefined)
inactive: dose: 25.0 mg/kg/injection, schedule: Q01DX001 (ip), vehicle: Klucel (hydroxypropylcellulose) (HPC) 103 % of control | dose: 50.0 mg/kg/injection, schedule: Q01DX001 (ip), vehicle: Klucel (hydroxypropylcellulose) (HPC) 104 % of control | dose: 50.0 mg/kg/injection, schedule: Q04DX003 (ip), vehicle: Klucel (hydroxypropylcellulose) (HPC) 96 % of control | [1] 93 % of control and 100 % of control | [2] 102 % of control

Cc1ccc(Oc2ccc(-c3cc(=O)c4cc(S(=O)(=O)F)ccc4[nH]3)cc2)cc1
inactive: dose: 100.0 mg/kg/injection, schedule: Q04DX003 (ip), vehicle: gum acacia 96 % of control | dose: 200.0 mg/kg/injection, schedule: Q04DX003 (ip), vehicle: gum acacia 88 % of control | dose: 400.0 mg/kg/injection, schedule: Q04DX003 (ip), vehicle: gum acacia 86 % of control

CCCCCCCCCCCCCCOc1ccc(Sc2ccc([N+](=O)[O-])cc2)cc1
inactive: [1] 106 % of control | [3] 90 % of control | [4] 89 % of control

C(=C1/CCCc2ccccc21)/c1ccccn1
inactive: dose: 100.0 mg/kg/injection, schedule: Q01DX001 (ip), vehicle: other 98 % of control | dose: 200.0 mg/kg/injection, schedule: Q01DX001 (ip), vehicle: other 103 % of control | dose: 400.0 mg/kg/injection, schedule: Q01DX001 (ip), vehicle: other 90 % of control

O=C(NOCc1cc2c(cc1Cl)OCO2)c1ccc(S(=O)(=O)F)cc1
inactive: dose: 100.0 mg/kg/injection, schedule: Q04DX003 (ip), vehicle: saline sonified 95 % of control

COc1ccc(CN2CCCN(Cc3ccc(OC)cc3)C2c2ccncc2C)cc1
inactive: dose: 100.0 mg/kg/injection, schedule: Q01DX001 (ip), vehicle: acetone 96 % of control | dose: 200.0 mg/kg/injection, schedule: Q01DX001 (ip), vehicle: acetone 105 % of control | dose: 400.0 mg/kg/injection, schedule: Q01DX001 (ip), vehicle: acetone 96 % of control

Cc1[nH]nc(C(F)(F)F)c1N=NN(C)C
inactive: dose: 175.0 mg/kg/injection, schedule: Q01DX009 (ip), vehicle: saline 90 % of control

CC/C(=C(\CC)c1ccc(OC)cc1)c1ccc(OC)cc1
inactive: dose: 50.0 mg/kg/injection, schedule: Q01DX009 (ip), vehicle: saline with Tween-80 100 % of control | [5] 89 % of control | [6] 89 % of control | dose: 200.0 mg/kg/injection, schedule: Q04DX003 (ip), vehicle: saline 87 % of control

O=c1nc(NO)ccn1C1CCCO1 (centres undefined)
inactive: [7] 96 % of control | [8] 100 % of control | [9] 96 % of control

O=C(COc1ccc(Cl)c(Cl)c1)N(Cc1ccccc1)Cc1ccc[n+](Cc2ccc(Cl)cc2S(=O)(=O)F)c1
inactive: [10] 95 % of control | [11] 95 % of control | [12] 104 % of control

CC(=O)NC1CCc2ccccc21 (centres undefined)
inactive: dose: 50.0 mg/kg/injection, schedule: Q04DX002 (ip), vehicle: Klucel (hydroxypropylcellulose) (HPC) 102 % of control | [10] 105 % of control | [11] 118 % of control

CCOc1ccccc1NC1=C(OC)C(=O)C(Nc2ccccc2OCC)=C(OC)C1=O
inactive: [13] 97 % of control | [7] 103 % of control | [14] 95 % of control | [2] 98 % of control | [8] 101 % of control | dose: 200.0 mg/kg/injection, schedule: Q04DX003 (ip), vehicle: Klucel (hydroxypropylcellulose) (HPC) 90 % of control | [9] 113 % of control | dose: 400.0 mg/kg/injection, schedule: Q01DX009 (ip), vehicle: Klucel (hydroxypropylcellulose) (HPC) 90 % of control | dose: 400.0 mg/kg/injection, schedule: Q04DX003 (ip), vehicle: Klucel (hydroxypropylcellulose) (HPC) 101 % of control

O=C1CCCN1C(=O)C1CC1
inactive: dose: 100.0 mg/kg/injection, schedule: Q01DX001 (ip), vehicle: saline sonified 96 % of control | [5] 91 % of control | dose: 200.0 mg/kg/injection, schedule: Q01DX001 (ip), vehicle: saline sonified 109 % of control | [6] 87 % of control | dose: 400.0 mg/kg/injection, schedule: Q01DX001 (ip), vehicle: saline sonified 106 % of control | dose: 400.0 mg/kg/injection, schedule: Q01DX009 (ip), vehicle: saline with Tween-80 92 % of control

O=C(Nc1ccc([As](=O)(O)O)cc1)Nc1cccc(Cl)c1Cl
inactive: [14] 100 % of control | [10] 100 % of control | dose: 200.0 mg/kg/injection, schedule: Q01DX009 (ip), vehicle: Klucel (hydroxypropylcellulose) (HPC) 100 % of control | [11] 92 % of control | [12] 110 % of control

C=CC1(O)CCOCC1
inactive: dose: 25.0 mg/kg/injection, schedule: Q01DX001 (ip), vehicle: saline 97 % of control | dose: 50.0 mg/kg/injection, schedule: Q01DX001 (ip), vehicle: saline 97 % of control | dose: 100.0 mg/kg/injection, schedule: Q01DX001 (ip), vehicle: saline 97 % of control

CCCCCCOB(OCCCCCC)OCCCCCC
inactive: [13] 107 % of control | dose: 88.0 mg/kg/injection, schedule: Q01DX001 (ip), vehicle: carboxymethylcellulose (CMC) 97 % of control and 98 % of control | [7] 102 % of control | dose: 133.0 mg/kg/injection, schedule: Q01DX001 (ip), vehicle: carboxymethylcellulose (CMC) 96 % of control and 103 % of control | dose: 300.0 mg/kg/injection, schedule: Q01DX001 (ip), vehicle: carboxymethylcellulose (CMC) 93 % of control and 94 % of control | [9] 105 % of control

CN(C)CC/C(=N\Nc1ccc([N+](=O)[O-])cc1[N+](=O)[O-])c1ccccc1
inactive: dose: 100.0 mg/kg/injection, schedule: Q01DX001 (ip), vehicle: saline with Tween-80 94 % of control | dose: 200.0 mg/kg/injection, schedule: Q01DX001 (ip), vehicle: saline with Tween-80 92 % of control | dose: 400.0 mg/kg/injection, schedule: Q01DX001 (ip), vehicle: saline with Tween-80 92 % of control

O=C(NCc1ccccc1Cl)Nc1ccc(F)cc1
inactive: [7] 92 % of control | dose: 100.0 mg/kg/injection, schedule: Q01DX009 (ip), vehicle: carboxymethylcellulose (CMC) 92 % of control and 93 % of control | dose: 100.0 mg/kg/injection, schedule: Q04DX002 (ip), vehicle: carboxymethylcellulose (CMC) 95 % of control (2×) and 97 % of control | dose: 100.0 mg/kg/injection, schedule: Q04DX003 (ip), vehicle: carboxymethylcellulose (CMC) 95 % of control | [8] 96 % of control | dose: 200.0 mg/kg/injection, schedule: Q01DX009 (ip), vehicle: carboxymethylcellulose (CMC) 101 % of control | dose: 200.0 mg/kg/injection, schedule: Q04DX002 (ip), vehicle: carboxymethylcellulose (CMC) 94 % of control and 96 % of control and 88 % of control | dose: 200.0 mg/kg/injection, schedule: Q04DX003 (ip), vehicle: carboxymethylcellulose (CMC) 96 % of control | [9] 87 % of control | dose: 400.0 mg/kg/injection, schedule: Q01DX009 (ip), vehicle: carboxymethylcellulose (CMC) 92 % of control and 88 % of control | dose: 400.0 mg/kg/injection, schedule: Q04DX002 (ip), vehicle: carboxymethylcellulose (CMC) 93 % of control | dose: 400.0 mg/kg/injection, schedule: Q04DX003 (ip), vehicle: carboxymethylcellulose (CMC) 91 % of control

Cc1c2ccc3ccccc3c2cc2cccc(Cl)c12
inactive: [1] 97 % of control | [3] 98 % of control | [4] 101 % of control
